In paper PMC3417354 (Analytical biochemistry, 2012):

How the values were obtained:
mammalian cells = details: overexpression in mammalian cells; ref [19]; [20]; cited from earlier work
[1] = system: PCNA-dependent DNA synthesis; assay: Inhibition of PCNA-dependent DNA synthesis in HeLa cell extract; type: biochemical, human; details: PCNA titrated 0.05-2.5 μM (0.1-2.5 μM with 20 μM p21 peptide)
PCNA trimer = assay: Gel filtration chromatography of PCNA/peptide complexes; type: binding, human; details: Superose 12, peptide : PCNA trimer 1:1; UV 280 nm
human PCNA = human PCNA (Homo sapiens, UniProt P12004); assay: Competition-based fluorescence polarization assay with BODIPY-p21 peptide; type: binding; details: competition FP, abstract statement
human PCNA, sequence (P12004 whole entry): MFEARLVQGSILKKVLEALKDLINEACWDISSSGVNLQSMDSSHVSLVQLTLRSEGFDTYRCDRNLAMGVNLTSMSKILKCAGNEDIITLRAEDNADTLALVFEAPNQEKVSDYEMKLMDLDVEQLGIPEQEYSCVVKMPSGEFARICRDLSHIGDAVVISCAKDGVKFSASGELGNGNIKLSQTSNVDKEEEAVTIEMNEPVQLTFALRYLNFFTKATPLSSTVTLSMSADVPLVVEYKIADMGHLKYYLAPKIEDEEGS

Substance	arrest of cell division (in words) (mammalian cells)	rescue of DNA synthesis by added PCNA (in words) [1]	binding of single or multiple PCNA trimers (in words) (PCNA trimer)	dissociation constant (in words) (human PCNA)
20 amino-acid peptide spanning the C-terminus of p21: amino acids 141-160 of the native p21	able to arrest cell division			
KRRQTSMTDFYHSKRRLIFSGGSGGSGGSGGSGGSGGSKRRQTSMTDFYHSKRRLIFS [divalent p21 peptide]		reversed the inhibition	rules out the binding of multiple PCNA trimers	low nanomolar dissociation constant
KRRQTSMTDFYHSKRRLIFSGGSGGSGGSGGSGGSGGSKRRQTSMTDFYHSKRRLIFSGGSGGSGGSGGSGGSGGSKRRQTSMTDFYHSKRRLIFS [trivalent p21 peptide]		reversed the inhibition	rules out the binding of multiple PCNA trimers	low nanomolar dissociation constant
